Assay results published in US20260108561A1, “COMPOSITION FOR CELL TRANSPLANTATION THERAPY AND THE USE THEREOF” (NATIONAL UNIVERSITY OF SINGAPORE, priority 2022, published 2026).

B1: CCL5: chemokine ligand 5, ligand of CCR5 (protein, UniProt P13501 24-91, looked up)
C-C motif chemokine 5: SPYSSDTTPCCFAYIARPLPRAHIKEYFYTSGKCSNPAVVFVTRKNRQVCANPEKKWVREYINSLEMS
B2: CCL4: chemokine ligand 4, ligand of CCR5 (protein, UniProt P13236 24-92, looked up)
C-C motif chemokine 4: APMGSDPPTACCFSYTARKLPRNFVVDYYETSSLCSQPAVVFQTKRSKQVCADPSESWVQEYVYDLELN
B3: CCL3: chemokine ligand 3, ligand of CCR5 (protein, UniProt P10147 24-92, looked up)
C-C motif chemokine 3: SLAADTPTACCFSYTSRQIPQNFIADYFETSSQCSKPGVIFLTKRSRQVCADPSEEWVQKYVSDLELSA

Experiments:
[1] = system: neurons in the penumbra area; conditions: 100 mg/kg, i.p. daily; cited from earlier work
[2] = biological target: T1, CCR5 (Homo sapiens, UniProt P51681); test: CCR5 expression on cultured NPCs (immunostaining, Western blotting); type: cell-based; conditions: immunostaining and Western blotting
T1 construct: endogenous in cells; host or cells: NPCs, immature and mature neurons differentiated from human H9 / eGFP-H9 embryonic stem cells
Experimental: (§1) To test the effects of CCR5 activation on NPCs and neurons, cells were seeded on Matrigel coated coverslips or 6-well plates and treated with overdose (300 ng/mL) ligands of CCR5. CCL3, CCL4, CCL5 and their combination (CCL3/4/5) were respectively added into NIM every other day. After four-day treatment, NPCs or neurons were collected for staining or immunoblotting.
(§2) 1×10^^5 NPCs were seeded on coverslips in each well of 24-well plate for two days to 50% confluency upon transduction at 37° C. in a humidified 5% C02 incubator. The lentiviral shRNAs (MOIs of 20) were used to infect NPCs overnight at 37° C. The medium containing lentiviral particles was removed from wells and replaced with […] fresh pre-warmed NIM. The infected NPCs were collected for immunostaining or western blotting at 5 days after transduction.
NPCs and neurons were washed using PBS and resuspended in RIPA buffer with protease inhibitor and phosphatase inhibitor. Samples were collected to 1.5 mL tubes on ice for 15 mins. […] All samples were quantified using Quick Start™ Bradford Protein Assay (Bio-RAD), and then Laemmli buffer (Bio-RAD) was added to each tube. […]
After running at 120 V for 40 mins, proteins were transferred to PVDF membranes at 400 mA for 30 mins. […] All intensity of bands was analysed by ImageJ software and normalized to corresponding GAPDH bands.

[3] = system: NPCs; test: Apoptosis of cultured NPCs (cleaved-caspase3, TUNEL) under CCR5 ligands and CCR5 blockade; type: cell-based, Human; conditions: for Proportion of cleaved-caspase3+ cells in NPCs: single ligand 300 ng/mL, compared with the control group
Experimental: Induction of forebrain glutamate NPCs was done using the following procedure. Briefly, H9 hESCs or eGFP H9 hESCs were cultured on 6-well plates with Matrigel/vitronectin coated for one week. ESC colonies were gently blown off by 1 mL pipettes to form cell aggregates at day 0. Cell aggregates were cultured in flasks for 7 days with the neural induction medium (NIM) consisting of DMEM/F12, 1×N2 supplement, 1×NEAA, 2-μM SB431542, and 2-μM DMH-1. Cell aggregates were adhered to 6-well plates in the presence of NIM with 5% FBS for 6 hours, and then fresh NIM was changed. The aggregates were fed with NIM till neural rosette formation at day 16. The rosettes were gently blown off using 1 mL pipettes and suspended in flasks with NIM for 7 days. Then, NIM was changed every four days from day 23. The neural precursor cells (NPCs) were maintained in NIM till transplantation or immunostaining. NPCs were digested into single cells using TrypLE for 3 min at day 49. After one additional day of culture in NIM supplemented with 1×B27 and 100 nM compound E, the NPCs were collected for transplantation in ischemic stroke models. B-27 supplement is a defined yet complex mixture of antioxidant enzymes, proteins, vitamins, and fatty acids that are combined in optimized ratios to support neuronal survival in culture. Compound E is a γ-secretase inhibitor. For immunostaining, NPCs were seeded on glass coverslips and staining was performed after one-week culture.
as §1, §2
Sections were subsequently washed and incubated with corresponding secondary antibodies for 1 h at room temperature. Immunolabeled sections were mounted by Fluoromount-G with Hoechst. For TUNEL staining, cells on coverslips were fixed in PBS with 4% PFA for 30 mins, and then incubated with Terminal Deoxynucleotidyl Transferase (TdT) Equilibration buffer (Elabscience) at 37° C. for 30 mins. NPCs were incubated in labeling solution (Elabscience) with TdT enzyme at 37° C. for 1 hour.

[4] = system: CCR5, CCL3, CCL4, and CCL5 protein expression; test: Western blotting of CCR5 and CCL3/4/5 in transplanted cortical tissue; type: in vivo, SCID mice; conditions: day 44 after ischemic lesion / 30 days post-transplantation; normalized to GAPDH
Experimental: Animals were anaesthetized and perfused with cold PBS at 2, 14 and 44 days after stroke. The injured cortices or grafts (an area with a radius of 1 mm from the epicenter) were dissected manually under a stereomicroscope (Zeiss) and stored at −80° C.
NPCs and neurons were washed using PBS and resuspended in RIPA buffer with protease inhibitor and phosphatase inhibitor. Samples were collected to 1.5 mL tubes on ice for 15 mins. For tissue samples, extracts were sonicated in cold RIPA buffer with protease/phosphatase inhibitors. All samples were quantified using Quick Start™ Bradford Protein Assay (Bio-RAD), and then Laemmli buffer (Bio-RAD) was added to each tube. Samples were heated at 95° C. for 5 mins and stored at −80° C. Total 15 μg of extract was loaded to each well on a 10% Bis-Tris pre-casted gel for electrophoresis.
After running at 120 V for 40 mins, proteins were transferred to PVDF membranes at 400 mA for 30 mins. […] Then membranes were incubated with primary antibodies overnight at 4° C.: anti-CCR5 (1:1000, Abcam, ab110103), anti-CCL3 (1:1000, Abcam, ab259372), anti-CCL4 (1:1000, Abcam, EP521Y), anti-CCL5 (1:1000, Thermo Fisher Scientific, 701030), anti-GAPDH (1:5000, Thermo Fisher Scientific, MA5-15738). The membranes were washed three times by 0.1% TBST and incubated with corresponding secondary antibodies at room temperature for 1 hour. The protein bands were presented by Enhanced Chemiluminescence Substrate (Promega) and visualized in Bio-RAD Chemidoc system. All intensity of bands was analysed by ImageJ software and normalized to corresponding GAPDH bands.

[5] = system: grafted NPCs in the ischemic core; test: Survival and differentiation of NPCs transplanted into the ischemic core of photothrombotic stroke mice (immunohistochemistry, stereology); type: in vivo, SCID mice; conditions: for Cleaved-caspase3 immunostaining in grafted cells / Grafted (GFP+) cells in the stroke cavity: 7 days post transplantation; for Grafted (GFP+) cells in the stroke cavity: NPCs injected into ischemic core 2 weeks after stroke; for Gross appearance of the cortex: 30 days post transplantation; for Survival of grafted NPCs (overall conclusion): NPCs transplanted into the ischemic core
Experimental: All animal studies were performed in accordance with the institutional animal care and use committee at Duke-NUS Medical School. Ischemic strokes in adult (10-12 weeks) male SCID mice were induced through photo-thrombosis. Briefly, Rose Bengal was administered intravenously at a dose of 0.1 mg/g per mouse. Mouse skull was exposed under 2% isoflurane anaesthesia. The right motor cortex (anterior-posterior [AP]=+2 mm, lateral [L]=+1 mm) received a 2.5-mm diameter illumination of cold light through the intact skull for 15 min. Animals were randomly grouped and transplanted with forebrain glutamatergic precursors.
Animals were sacrificed with a lethal dose of pentobarbital (250 mg/kg) and immediately perfused with PBS followed by 4% cold paraformaldehyde (PFA). The brain samples were fixed in cold PFA for 2 hours and immersed in 30% sucrose at 4° C. for around 4 days until sunk. Serial coronal (1.54 mm to-0.22 mm from Bregma) sections were collected on a freezing microtome at a 40-μm thickness and stored at −20° C. For immunostaining, sections were incubated with blocking solution containing 10% normal donkey serum and 0.2% Triton-100 for 1 h at room temperature. Then sections were incubated with primary antibodies overnight at 4° C.
To quantify the population of DCX, SOX2, Ki67, NF and NeuN positive cells to total grafted cells (eGFP and Hoechst co-labelled), one brain slice was selected from every 6 serial slices on for stereological counting on Zeiss M1 Microscope with Stereo Investigator software (MBF Bioscience). In brief, immunolabeled slices were scanned on Zeiss M1 Microscope, grafts area was contoured manually, and then corresponding fluorescence labelled cells were unbiasedly counted. Population of cleaved-caspase3 expressing cells to total grafted cells was counted with ImageJ software. Data were replicated 4 to 6 times per group. To quantify the population of Brn2, Ctip2 and Foxp2 expressing cells to total GFP^+ cells on coverslips, all coverslips were scanned and captured by 20× objective with a confocal microscope (Nikon), and then was counted with ImageJ software. Data were replicated three times. All data were expressed as means±SEM.

T1 sequence (P51681 whole entry): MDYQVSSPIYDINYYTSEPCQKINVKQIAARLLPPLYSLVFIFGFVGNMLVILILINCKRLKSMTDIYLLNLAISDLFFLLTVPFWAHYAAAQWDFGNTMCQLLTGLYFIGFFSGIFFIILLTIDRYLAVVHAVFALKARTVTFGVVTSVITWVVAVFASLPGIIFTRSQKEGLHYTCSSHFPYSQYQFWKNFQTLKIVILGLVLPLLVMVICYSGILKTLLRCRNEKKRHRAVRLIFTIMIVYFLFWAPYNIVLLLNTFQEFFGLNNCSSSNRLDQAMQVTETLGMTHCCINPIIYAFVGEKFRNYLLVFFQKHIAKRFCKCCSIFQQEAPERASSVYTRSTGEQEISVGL

Row | Molecule | CCR5 level in transplanted cortical tissue [4] | Level of CCL3, 4, 5 in transplanted cortical tissue [4] | Cleaved-caspase3 immunostaining in grafted cells [5] | Grafted (GFP+) cells in the stroke cavity [5] | Gross appearance of the cortex [5] | Survival of grafted NPCs (overall conclusion) [5] | Proportion of cleaved-caspase3+ cells in NPCs [3] | further results
1 | Maraviroc [reference compound] | did not downregulate | did not show obvious difference | strong fluorescence | few or no GFP^+ cells | collapsed cortex | insufficient to improve the survival of grafted NPCs |  | Survival of neurons in the penumbra after stroke [1]: promoted the survival of those neurons and their synaptic connections; Expression of CCR5 in NPCs under CCR5 blockade [2]: without reducing the expression of CCR5; TUNEL+ cell population in NPCs under CCR5 blockade ([3]; apoptosis induced by CCLs): reduced the proportion of TUNEL^+ NPCs
2 | fibrinogen | did not downregulate | did not show obvious difference | strong fluorescence | observed in the stroke cavity | collapsed cortex | insufficient to improve the survival of grafted NPCs |  | Fate of grafted cells ([5]; one month post-transplantation): some surviving cells, which did not proliferate and became GFAP positive astrocytes
3 | B1 |  |  |  |  |  |  | increased | 
4 | B2 |  |  |  |  |  |  | increased | 
5 | B3 |  |  |  |  |  |  | increased | 
